{"source": "patent US8329693B2", "about": "“Method for the prevention of thromboembolic disorders” (Orion Corporation, priority 2004, dated 2012)", "system": "salt sensitive rat model", "test": "Stroke in salt sensitive rat model (summary statements)", "format": "in vivo", "details": "preventative treatment"}
{"compound": "CC(=O)Nc1ccc(C2=NNC(=O)C[C@H]2C)cc1", "note": "[metabolite (II), (R)—N-[4-(1,4,5,6-tetrahydro-4-methyl-6-oxo-3-pyridazinyl)phenyl]acetamide]", "values": [{"measurement": "incidence and volume of brain lesions, behavioural disorders and mortality associated with stroke", "result": "markedly reduce"}]}
